The source of these data is ChEMBL document CHEMBL1140856, “Substituted 1,2,3,4-tetrahydroquinolin-6-yloxypropanes as beta3-adrenergic receptor agonists: design, synthesis, biological evaluation and pharmacophore modeling” (Bioorg Med Chem, 2009).

The target in experiment [1] is T1, Beta-3 adrenergic receptor (Homo sapiens, UniProt P13945). Briefly: Displacement of [125I]iodocyanopindolol from human adrenergic beta-3 receptor at 1 uM.
Target sequence in this assay (P13945 whole entry, looked up): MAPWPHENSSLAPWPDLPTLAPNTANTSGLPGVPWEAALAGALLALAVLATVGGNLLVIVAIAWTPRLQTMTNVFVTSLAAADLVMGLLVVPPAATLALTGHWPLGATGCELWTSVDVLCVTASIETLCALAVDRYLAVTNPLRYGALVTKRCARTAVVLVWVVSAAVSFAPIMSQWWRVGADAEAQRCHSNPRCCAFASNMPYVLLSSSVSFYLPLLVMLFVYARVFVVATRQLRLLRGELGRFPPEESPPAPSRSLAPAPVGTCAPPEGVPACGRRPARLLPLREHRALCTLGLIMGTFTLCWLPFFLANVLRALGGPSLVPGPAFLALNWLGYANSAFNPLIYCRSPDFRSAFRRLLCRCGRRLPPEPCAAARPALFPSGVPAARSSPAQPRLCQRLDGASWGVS
Experiment [2] deals with T1, Beta-3 adrenergic receptor. Nature of the experiment: Displacement of [125I]iodocyanopindolol from human adrenergic beta-3 receptor at 10 uM. (Loss of bound radioactivity is the signal in a displacement assay; it reports binding, not function.)
Target sequence in this assay (P13945 whole entry, looked up): as above
Experiment [3] addresses T1, Beta-3 adrenergic receptor. Briefly: Displacement of [125I]iodocyanopindolol from human adrenergic beta-3 receptor.
Target sequence in this assay (P13945 whole entry): as the sequence (P13945 whole entry, looked up) above
Experiment [4] can be described thus: Selectivity ratio of EC50 for adrenergic beta-1 receptor to EC50 for human adrenergic beta-3 receptor.
Experiment [5] addresses Beta-1 adrenergic receptor (Homo sapiens, UniProt P08588). Briefly: Agonist activity at adrenergic beta-1 receptor. It counts as functional.
Experiment [6] deals with T1, Beta-3 adrenergic receptor. Briefly: Agonist activity at adrenergic beta-3 receptor in human SK-N-MC cells. The class given is functional, cell-based.
Target sequence in this assay (P13945 whole entry): as the sequence (P13945 whole entry, looked up) above
Experiment [7] concerns the target Beta-2 adrenergic receptor (Homo sapiens, UniProt P07550). Briefly: Agonist activity at adrenergic beta-2 receptor. The class given is functional.
Experiment [8] can be described thus: Selectivity ratio of EC50 for adrenergic beta-2 receptor to EC50 for human adrenergic beta3 receptor.

Structures are written as SMILES. pEC50, pIC50: −log10 of the molar value.

Sequence of Beta-2 adrenergic receptor (P07550 whole entry): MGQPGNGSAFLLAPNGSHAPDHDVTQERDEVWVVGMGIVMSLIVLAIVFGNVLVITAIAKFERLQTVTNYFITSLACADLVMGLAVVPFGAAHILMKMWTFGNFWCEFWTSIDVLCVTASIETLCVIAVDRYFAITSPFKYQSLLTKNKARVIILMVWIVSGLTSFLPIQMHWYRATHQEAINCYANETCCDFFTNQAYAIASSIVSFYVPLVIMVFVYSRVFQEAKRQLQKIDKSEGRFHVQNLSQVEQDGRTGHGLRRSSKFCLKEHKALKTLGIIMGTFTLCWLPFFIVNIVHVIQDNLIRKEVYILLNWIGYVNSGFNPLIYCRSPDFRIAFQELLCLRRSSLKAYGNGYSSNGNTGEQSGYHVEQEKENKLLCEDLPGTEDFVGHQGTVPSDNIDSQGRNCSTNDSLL
Sequence of Beta-1 adrenergic receptor (P08588 whole entry): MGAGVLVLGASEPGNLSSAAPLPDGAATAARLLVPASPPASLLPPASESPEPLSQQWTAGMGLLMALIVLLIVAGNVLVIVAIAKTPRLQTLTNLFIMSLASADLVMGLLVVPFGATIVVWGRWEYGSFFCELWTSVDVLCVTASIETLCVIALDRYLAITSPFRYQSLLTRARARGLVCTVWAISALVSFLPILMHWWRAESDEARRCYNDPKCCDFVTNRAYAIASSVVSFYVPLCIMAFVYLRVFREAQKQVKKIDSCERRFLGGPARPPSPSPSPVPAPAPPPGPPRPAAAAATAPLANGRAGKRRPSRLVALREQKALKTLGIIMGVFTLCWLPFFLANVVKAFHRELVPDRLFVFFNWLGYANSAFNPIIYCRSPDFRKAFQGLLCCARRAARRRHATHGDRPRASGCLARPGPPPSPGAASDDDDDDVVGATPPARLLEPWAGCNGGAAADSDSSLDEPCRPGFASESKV

By inhibition is commonly meant the relative decrease from the control value, in per cent. Consider `Cc1ccc(CCNCC(O)COc2ccc3c(c2)CCCN3Cc2ccccc2)cc1` (stereo not drawn), for which the inhibition in experiment [1] was 8.17%; in experiment [2], 18.1%.
`OC(COc1ccc2c(c1)CCCN2Cc1ccccc1)CN1CCC(Cc2ccccc2)CC1` (stereo not drawn): the inhibition was -2.05% in experiment [1] and 23.5% in experiment [2].
The like results for `CC(Cc1ccc(OCC(=O)O)cc1)N1CCOC(c2ccccc2)C1` (stereo not drawn) were, in that order, -9.63% and 9.42%.
With `COc1ccc(CCNCC(O)COc2ccc3c(c2)CCCN3)cc1OC` (stereo not drawn), the figures for the inhibition in experiment [1] and in experiment [2] were 33.1% and 56.5%, respectively.
The like results for `OC(COc1ccc2c(c1)CCCN2Cc1ccccc1)CN1CCN(Cc2ccc3c(c2)OCO3)CC1` (stereo not drawn) were, in that order, -5.28% and 18.1%.
The like results for `COc1ccc(CCN(CC(O)COc2ccc3c(c2)CCCN3Cc2ccccc2)C(=O)OC(C)(C)C)cc1OC` (stereo not drawn) were, in that order, 37.8% and 46.7%.
Regarding `O=[N+]([O-])c1ccc(N2CCN(CC(O)COc3ccc4c(c3)CCCN4Cc3ccccc3)CC2)cc1` (stereo not drawn), the inhibition stood at 6.08% in experiment [1] and 4.13% in experiment [2].
For the molecule `COc1ccccc1N1CCN(CC(O)COc2ccc3c(c2)CCCN3Cc2ccccc2)CC1` (stereo not drawn), the inhibition in experiment [1] was 12.2%; in experiment [2], 14.5%.
For `COc1ccc(CCNCC(O)COc2ccc3c(c2)CCCN3S(=O)(=O)c2ccccc2)cc1OC` (stereo not drawn), the inhibition in experiment [1] came out at 26.5%; in experiment [2], 38.9%.
What is called pIC50 is the IC50 on a negative log10 scale, so that one unit is a factor of ten. High values mean a low IC50, low ones a high IC50. In the case of `OC(COc1ccc2c(c1)CCCN2Cc1ccccc1)CN1CCN(c2ccc(F)cc2)CC1` (stereo not drawn), the pIC50 in experiment [3] is 5.75. Further, the inhibition worked out at 49.7% in experiment [1] and 68.8% in experiment [2].
On to `CN(Cc1ccccc1)CC(O)COc1ccc2c(c1)CCCN2Cc1ccccc1` (stereo not drawn), for which the inhibition in experiment [1] is -4.54%; in experiment [2], 2.54%.
`OC(COc1ccc2c(c1)CCCN2Cc1ccccc1)CN1CCN(c2cccc(Cl)c2)CC1` (stereo not drawn): the inhibition was -2.34% in experiment [1] and 11.3% in experiment [2].
In the case of `OC(COc1ccc2c(c1)CCCN2Cc1ccccc1)CN1CCCCC1` (stereo not drawn), the inhibition was 4.27% in experiment [1] and 31.4% in experiment [2].
What is called pEC50 is the negative decadic logarithm of the EC50, by convention in mol/L. A higher pEC50 goes with a low EC50. As for `CC(C)NCC(O)COc1ccc2c(c1)CCCN2Cc1ccccc1` (stereo not drawn), the Ratio EC50 worked out at 2.3 in experiment [4] and 1.31 in experiment [8]. Also, the negative-log IC50 (pIC50) in experiment [3] was 6.23. Further, the pEC50 in experiment [5] was 5.69; in experiment [6] it was 6.05; in experiment [7] it was 5.94. Besides, the values for the inhibition in experiment [1] and in experiment [2] were 59.7% and 83.2%, respectively.
`COc1ccc(CCNCC(O)COc2ccc3c(c2)CCCN3Cc2ccccc2)cc1` (stereo not drawn): the Ratio EC50 was determined as 1.47 in experiment [4] and 1.2 in experiment [8]. Also, the pIC50 in experiment [3] was 5.93. For the same molecule, the pEC50 in experiment [5] is 5.14; in experiment [6] it was 5.31; in experiment [7] it was 5.23. In addition, the inhibition in experiment [1] stood at 56.2%; in experiment [2], 76.5%.
On to `CC1CCN(CC(O)COc2ccc3c(c2)CCCN3Cc2ccccc2)CC1` (stereo not drawn), for which the inhibition in experiment [1] was -1.79%; in experiment [2], 12.8%.
In the case of `OC(COc1ccc2c(c1)CCCN2Cc1ccccc1)CN1CCN(c2ccccn2)CC1` (stereo not drawn), the inhibition in experiment [1] amounted to 5.32%; in experiment [2], 12.7%.
On to `CCCCN(CCCC)CC(O)COc1ccc2c(c1)CCCN2Cc1ccccc1` (stereo not drawn), for which the inhibition was determined as 4.09% in experiment [1] and 14.7% in experiment [2].
In the case of `CC(NCC(O)COc1ccc2c(c1)CCCN2Cc1ccccc1)c1ccccc1` (stereo not drawn), the inhibition in experiment [1] came out at 7.71%; in experiment [2], 27.5%.
Regarding `CCCNCC(O)COc1ccc2c(c1)CCCN2Cc1ccccc1` (stereo not drawn), the inhibition in experiment [1] worked out at 19.2%; in experiment [2], 66.3%.
With `Clc1ccc(CCNCCCOc2ccc3c(c2)CCCN3Cc2ccccc2)cc1`, the inhibition in experiment [1] was 42.9%; in experiment [2], 58.7%.
On to `OC(COc1ccc2c(c1)CCCN2Cc1ccccc1)CN1CCC(O)(c2ccccc2)CC1` (stereo not drawn), for which the inhibition in experiment [1] was found to be 46.4%; in experiment [2], 50.5%.
The like results for `CC1CN(c2ccc(Cl)cc2)CCN1CC(O)COc1ccc2c(c1)CCCN2Cc1ccccc1` (stereo not drawn) were, in that order, 3.61% and 0.08%.
As for `COc1ccc(N2CCN(CC(O)COc3ccc4c(c3)CCCN4Cc3ccccc3)CC2)cc1` (stereo not drawn), the inhibition in experiment [1] turned out to be 45.1%; in experiment [2], 49.8%.
The like results for `COc1ccc(CNCC(O)COc2ccc3c(c2)CCCN3Cc2ccccc2)cc1` (stereo not drawn) were, in that order, 9.26% and 27.4%.
With `OC(COc1ccc2c(c1)CCCN2Cc1ccccc1)CN1CCN(c2ccccc2F)CC1` (stereo not drawn), the inhibition came to 5.5% in experiment [1] and 20.4% in experiment [2].
Consider `CCN(CC)CC(O)COc1ccc2c(c1)CCCN2Cc1ccccc1` (stereo not drawn), for which the inhibition was found to be 9.18% in experiment [1] and 11.2% in experiment [2].
The like results for `OC(CNCc1ccccc1)COc1ccc2c(c1)CCCN2Cc1ccccc1` (stereo not drawn) were, in that order, 1.81% and 19%.
For the molecule `OC(COc1ccc2c(c1)CCCN2Cc1ccccc1)CN1CCN(Cc2ccccc2)CC1` (stereo not drawn), the inhibition in experiment [1] is -0.84%; in experiment [2], 17.1%.
Take `OC(CNCCc1ccc(Cl)cc1)COc1ccc2c(c1)CCCN2Cc1ccccc1` (stereo not drawn): the inhibition turned out to be 55.8% in experiment [1] and 63.1% in experiment [2].
On to `COc1ccc(CCNCC(O)COc2ccc3c(c2)CCCN3Cc2ccccc2)cc1OC` (stereo not drawn), for which, in experiment [3], the pIC50 is 6.26. Further, the inhibition was found to be 72.8% in experiment [1] and 90.6% in experiment [2].
For the molecule `CCOC(=O)COc1ccc(CC(C)N2CCOC(c3ccccc3)C2)cc1` (stereo not drawn), the inhibition in experiment [2] is -1.36%.
As for `COc1ccc(N2CCN(CCCOc3ccc4c(c3)CCCN4Cc3ccccc3)CC2)cc1`, the inhibition was 6.72% in experiment [1] and 1.95% in experiment [2].
As for `CN1CCN(CC(O)COc2ccc3c(c2)CCCN3Cc2ccccc2)CC1` (stereo not drawn), the inhibition in experiment [1] was -3.71%; in experiment [2] it was 0.18%.
The like results for `Cc1ccc(N2CCN(CC(O)COc3ccc4c(c3)CCCN4Cc3ccccc3)C(C)C2)cc1` (stereo not drawn) were, in that order, 3.19% and 11.8%.
`CCCNCCCOc1ccc2c(c1)CCCN2Cc1ccccc1`: the inhibition was found to be 5.62% in experiment [1] and 16.2% in experiment [2].
The like results for `OC(COc1ccc2c(c1)CCCN2Cc1ccccc1)CN1CCN(c2ccccc2)CC1` (stereo not drawn) were, in that order, 45.9% and 52.2%.
The like results for `CC(Cc1ccc(O)cc1)N1CCOC(c2ccccc2)C1` (stereo not drawn) were, in that order, 0.34% and 0.24%.
Consider `COc1ccc(CCN(CC(O)COc2ccc3c(c2)CCCN3)C(=O)OC(C)(C)C)cc1OC` (stereo not drawn), for which the inhibition turned out to be 23.2% in experiment [1] and 28.1% in experiment [2].
`OC(COc1ccc2c(c1)CCCN2Cc1ccccc1)CN1CCN(c2ccc(Cl)c(Cl)c2)CC1` (stereo not drawn): the inhibition was -7.18% in experiment [1] and 0.28% in experiment [2].
